Measurements taken from patent publication US9517269B1, “Stable pentobarbital formulation” (Akorn, Inc., priority 2013, dated 2016).

Tests used:
[1] = background statement; cited from earlier work
[2] = Formulation Development Study #2 (target pH 8.70): physical observations; type: physicochemical; settings: below pH 8.7
Method: Based on Formulation Development Study #1, four more lab batches were made with different concentrations of propylene glycol and ethyl alcohol at target pH 8.70. The purpose of the study was to determine the influence of low pH and different concentrations of propylene glycol and ethyl alcohol on the product quality. Physical observations were recorded during compounding. Lab batch samples were placed on stability at room temperature, 40° C. and 50° C. Only physical observations were performed and recorded during stability. The stability study lasted one month.

[3] = Formulation Development Study #5 (44% propylene glycol): physical observations; type: physicochemical; settings: with 44% propylene glycol at pH-9.0
Method: In order to determine at what pH precipitate forms at room temperature, three lab batches were made with 44% propylene glycol and target pH at 9.1, 9.0 and 8.9. […] Lab batch samples were placed on stability at room temperature, 40° C., and 50° C. for three months. Only physical observations were performed during the stability study.

[4] = Formulation Development Study #4 (target pH 9.0): physical observations; type: physicochemical; settings: pH ˜9.0 and propylene glycol concentration less than 50%
Method: Four lab batches similar to Formulation Development Study #3 were made. The purpose of these batches was to find out if impurity at RRT 0.7 can be reduced by making lab batches with different concentrations of propylene glycol and alcohol at the target pH of 9.0. […] These four lab batches were placed on stability at room temperature, 40° C., and 50° C.

Compound: CCCC(C)C1(CC)C(=O)NC(=O)NC1=O (stereo not shown) [pentobarbital, 5-Ethyl-5-(1-methylbutyl)-2,4,6(1H,3H,5H)-pyrimidinetrione]
- pH at which pentobarbital precipitates [1]: less than 9.0
- Stability of pentobarbital in solution (precipitation) [2]: not stable
- Stability of pentobarbital in solution (precipitation) [3]: not stable
- Stability of pentobarbital in solution (precipitation) [4]: not stable
